Measured values taken from the kinase profiling compilation of Christmann-Franck et al. (2016).

Legend:
Experiment in all cases: KINOMEscan competition binding
Details in all cases: compound 10.0 µM
WEE2 (human) = WEE2 (human) (UniProt P0C1S8)
ULK1 (human) = ULK1 (human) (UniProt O75385)
DAPK2 (human) = DAPK2 (human) (UniProt Q9UIK4)
STK32B (human) = STK32B (human) (UniProt Q9NY57)
TEC (human) = TEC (human) (UniProt P42680)
[1] = target: JAK1 JH1 catalytic (human) (UniProt P23458)
CDC42BPA (human) = CDC42BPA (human) (UniProt Q5VT25)
AXL (human) = AXL (human) (UniProt P30530)
AAK1 (human) = AAK1 (human) (UniProt Q2M2I8)
IRAK3 (human) = IRAK3 (human) (UniProt Q9Y616)
MAP2K6 (human) = MAP2K6 (human) (UniProt P52564)
PTK6 (human) = PTK6 (human) (UniProt Q13882)
PTK6 (human), sequence (Q13882 whole entry, looked up): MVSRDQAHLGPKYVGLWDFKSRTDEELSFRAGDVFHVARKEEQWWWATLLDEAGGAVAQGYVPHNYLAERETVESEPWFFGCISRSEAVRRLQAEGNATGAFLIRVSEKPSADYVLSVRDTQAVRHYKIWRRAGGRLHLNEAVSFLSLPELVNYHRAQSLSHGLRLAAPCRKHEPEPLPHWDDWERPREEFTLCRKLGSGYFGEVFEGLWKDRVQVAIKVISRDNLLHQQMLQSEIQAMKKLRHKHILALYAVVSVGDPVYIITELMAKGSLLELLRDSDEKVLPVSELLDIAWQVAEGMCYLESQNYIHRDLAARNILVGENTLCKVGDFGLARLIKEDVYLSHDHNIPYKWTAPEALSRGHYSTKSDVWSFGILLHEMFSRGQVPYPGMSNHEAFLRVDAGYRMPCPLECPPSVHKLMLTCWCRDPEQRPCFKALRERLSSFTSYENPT

MAP3K7 (human) = MAP3K7 (human) (UniProt O43318)
MAPK3 (human) = MAPK3 (human) (UniProt P27361)
RIPK2 (human) = RIPK2 (human) (UniProt O43353)
RIPK2 (human), sequence (O43353 whole entry, looked up): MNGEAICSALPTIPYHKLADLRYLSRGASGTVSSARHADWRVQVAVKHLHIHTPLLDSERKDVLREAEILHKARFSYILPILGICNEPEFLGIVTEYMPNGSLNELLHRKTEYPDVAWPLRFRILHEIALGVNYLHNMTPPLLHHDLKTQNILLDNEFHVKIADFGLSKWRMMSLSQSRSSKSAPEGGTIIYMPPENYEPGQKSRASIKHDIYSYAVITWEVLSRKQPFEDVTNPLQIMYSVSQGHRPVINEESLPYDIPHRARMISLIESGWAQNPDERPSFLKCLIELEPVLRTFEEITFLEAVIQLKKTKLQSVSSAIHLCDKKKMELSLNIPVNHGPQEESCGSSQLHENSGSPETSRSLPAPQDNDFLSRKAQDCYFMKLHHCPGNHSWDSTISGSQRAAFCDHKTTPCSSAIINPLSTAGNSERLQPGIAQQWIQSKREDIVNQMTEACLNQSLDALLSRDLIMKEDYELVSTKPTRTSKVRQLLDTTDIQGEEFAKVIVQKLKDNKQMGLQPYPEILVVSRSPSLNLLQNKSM

EPHA6 (human) = EPHA6 (human) (UniProt Q9UF33)
EPHA6 (human), sequence (Q9UF33 whole entry, looked up): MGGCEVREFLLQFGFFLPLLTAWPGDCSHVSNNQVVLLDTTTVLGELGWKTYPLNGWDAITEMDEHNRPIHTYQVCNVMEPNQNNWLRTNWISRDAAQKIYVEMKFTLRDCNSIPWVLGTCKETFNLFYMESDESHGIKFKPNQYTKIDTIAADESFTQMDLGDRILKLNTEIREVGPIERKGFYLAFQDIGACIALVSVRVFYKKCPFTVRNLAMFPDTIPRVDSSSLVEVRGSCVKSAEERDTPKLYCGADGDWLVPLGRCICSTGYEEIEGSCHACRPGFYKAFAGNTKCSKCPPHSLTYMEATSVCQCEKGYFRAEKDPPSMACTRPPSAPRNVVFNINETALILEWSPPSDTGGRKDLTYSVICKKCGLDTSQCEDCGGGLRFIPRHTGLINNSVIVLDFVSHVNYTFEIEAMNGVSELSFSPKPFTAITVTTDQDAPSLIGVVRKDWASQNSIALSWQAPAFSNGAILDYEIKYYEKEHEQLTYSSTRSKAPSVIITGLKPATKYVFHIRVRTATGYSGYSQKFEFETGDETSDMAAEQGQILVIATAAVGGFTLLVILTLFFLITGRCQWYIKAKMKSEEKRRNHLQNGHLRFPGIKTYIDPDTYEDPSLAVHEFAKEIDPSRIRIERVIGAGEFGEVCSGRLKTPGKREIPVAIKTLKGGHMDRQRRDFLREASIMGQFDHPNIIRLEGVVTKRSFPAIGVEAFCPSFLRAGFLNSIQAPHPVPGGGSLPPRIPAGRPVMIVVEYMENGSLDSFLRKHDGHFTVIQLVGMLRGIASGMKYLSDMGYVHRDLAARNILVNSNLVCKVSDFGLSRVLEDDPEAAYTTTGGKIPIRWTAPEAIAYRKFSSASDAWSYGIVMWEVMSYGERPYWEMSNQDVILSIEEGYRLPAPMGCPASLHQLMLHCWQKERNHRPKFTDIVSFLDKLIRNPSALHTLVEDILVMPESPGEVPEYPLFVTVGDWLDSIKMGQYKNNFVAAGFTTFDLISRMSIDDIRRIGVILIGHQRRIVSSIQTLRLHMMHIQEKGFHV

NTRK3 (human) = NTRK3 (human) (UniProt Q16288)
ADCK4 (human) = ADCK4 (human) (UniProt Q96D53)
CDK8 (human) = CDK8 (human) (UniProt P49336)
TEK (human) = TEK (human) (UniProt Q02763)
MARK2 (human) = MARK2 (human) (UniProt Q7KZI7)
MARK2 (human), sequence (Q7KZI7 whole entry, looked up): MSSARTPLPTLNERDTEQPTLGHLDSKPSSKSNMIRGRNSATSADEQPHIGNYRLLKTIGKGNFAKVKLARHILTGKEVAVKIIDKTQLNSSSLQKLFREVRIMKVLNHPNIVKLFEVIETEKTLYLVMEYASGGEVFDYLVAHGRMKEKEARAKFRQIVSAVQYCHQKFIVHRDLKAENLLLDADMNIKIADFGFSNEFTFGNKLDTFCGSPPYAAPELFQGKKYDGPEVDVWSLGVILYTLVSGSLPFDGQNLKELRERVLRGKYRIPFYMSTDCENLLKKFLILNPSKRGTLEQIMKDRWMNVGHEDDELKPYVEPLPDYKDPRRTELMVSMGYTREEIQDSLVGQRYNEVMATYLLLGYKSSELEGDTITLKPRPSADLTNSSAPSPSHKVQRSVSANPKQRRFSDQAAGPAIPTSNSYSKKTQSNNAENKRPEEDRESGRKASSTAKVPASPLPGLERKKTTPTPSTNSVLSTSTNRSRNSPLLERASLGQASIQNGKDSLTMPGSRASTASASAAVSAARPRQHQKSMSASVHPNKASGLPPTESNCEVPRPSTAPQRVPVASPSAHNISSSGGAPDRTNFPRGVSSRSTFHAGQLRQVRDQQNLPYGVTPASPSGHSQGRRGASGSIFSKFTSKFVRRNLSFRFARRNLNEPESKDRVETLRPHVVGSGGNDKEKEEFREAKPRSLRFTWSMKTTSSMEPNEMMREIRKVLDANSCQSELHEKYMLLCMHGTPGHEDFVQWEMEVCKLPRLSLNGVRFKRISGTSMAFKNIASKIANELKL

MLTK (human) = MLTK (human) (UniProt Q9NYL2)
[2] = system: FLT3 (human), P36888 [N841I]
CDK18 (human) = CDK18 (human) (UniProt Q07002)
SGK110 (human) = SGK110 (human) (UniProt P0C264)
WEE1 (human) = WEE1 (human) (UniProt P30291)
MKNK1 (human) = MKNK1 (human) (UniProt Q9BUB5)
[3] = system: FLT3 (human), P36888 [ITD]
PDPK1 (human) = PDPK1 (human) (UniProt O15530)
PDPK1 (human), sequence (O15530 whole entry, looked up): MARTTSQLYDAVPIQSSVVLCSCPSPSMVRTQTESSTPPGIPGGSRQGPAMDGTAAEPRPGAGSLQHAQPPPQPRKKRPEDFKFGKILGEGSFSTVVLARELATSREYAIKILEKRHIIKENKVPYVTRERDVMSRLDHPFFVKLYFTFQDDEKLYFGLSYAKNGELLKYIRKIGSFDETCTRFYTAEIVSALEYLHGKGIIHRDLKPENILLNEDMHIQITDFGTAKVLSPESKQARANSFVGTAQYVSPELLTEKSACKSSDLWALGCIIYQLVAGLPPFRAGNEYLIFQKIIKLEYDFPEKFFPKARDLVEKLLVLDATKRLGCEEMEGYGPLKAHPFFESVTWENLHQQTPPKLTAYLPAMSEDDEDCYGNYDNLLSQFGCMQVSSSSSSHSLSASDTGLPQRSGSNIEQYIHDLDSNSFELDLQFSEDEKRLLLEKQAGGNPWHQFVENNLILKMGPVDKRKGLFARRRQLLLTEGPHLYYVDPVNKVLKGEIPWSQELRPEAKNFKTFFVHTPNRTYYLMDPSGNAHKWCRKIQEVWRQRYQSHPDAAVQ

IKBKE (human) = IKBKE (human) (UniProt Q14164)
DCLK2 (human) = DCLK2 (human) (UniProt Q8N568)
BRSK2 (human) = BRSK2 (human) (UniProt Q8IWQ3)
MAP3K4 (human) = MAP3K4 (human) (UniProt Q9Y6R4)
PAK4 (human) = PAK4 (human) (UniProt O96013)
EPHA5 (human) = EPHA5 (human) (UniProt P54756)
ITK (human) = ITK (human) (UniProt Q08881)
CIT (human) = CIT (human) (UniProt O14578)
ULK2 (human) = ULK2 (human) (UniProt Q8IYT8)
CSNK1G1 (human) = CSNK1G1 (human) (UniProt Q9HCP0)
STK3 (human) = STK3 (human) (UniProt Q13188)

ULK1 (human), sequence (O75385 whole entry, looked up): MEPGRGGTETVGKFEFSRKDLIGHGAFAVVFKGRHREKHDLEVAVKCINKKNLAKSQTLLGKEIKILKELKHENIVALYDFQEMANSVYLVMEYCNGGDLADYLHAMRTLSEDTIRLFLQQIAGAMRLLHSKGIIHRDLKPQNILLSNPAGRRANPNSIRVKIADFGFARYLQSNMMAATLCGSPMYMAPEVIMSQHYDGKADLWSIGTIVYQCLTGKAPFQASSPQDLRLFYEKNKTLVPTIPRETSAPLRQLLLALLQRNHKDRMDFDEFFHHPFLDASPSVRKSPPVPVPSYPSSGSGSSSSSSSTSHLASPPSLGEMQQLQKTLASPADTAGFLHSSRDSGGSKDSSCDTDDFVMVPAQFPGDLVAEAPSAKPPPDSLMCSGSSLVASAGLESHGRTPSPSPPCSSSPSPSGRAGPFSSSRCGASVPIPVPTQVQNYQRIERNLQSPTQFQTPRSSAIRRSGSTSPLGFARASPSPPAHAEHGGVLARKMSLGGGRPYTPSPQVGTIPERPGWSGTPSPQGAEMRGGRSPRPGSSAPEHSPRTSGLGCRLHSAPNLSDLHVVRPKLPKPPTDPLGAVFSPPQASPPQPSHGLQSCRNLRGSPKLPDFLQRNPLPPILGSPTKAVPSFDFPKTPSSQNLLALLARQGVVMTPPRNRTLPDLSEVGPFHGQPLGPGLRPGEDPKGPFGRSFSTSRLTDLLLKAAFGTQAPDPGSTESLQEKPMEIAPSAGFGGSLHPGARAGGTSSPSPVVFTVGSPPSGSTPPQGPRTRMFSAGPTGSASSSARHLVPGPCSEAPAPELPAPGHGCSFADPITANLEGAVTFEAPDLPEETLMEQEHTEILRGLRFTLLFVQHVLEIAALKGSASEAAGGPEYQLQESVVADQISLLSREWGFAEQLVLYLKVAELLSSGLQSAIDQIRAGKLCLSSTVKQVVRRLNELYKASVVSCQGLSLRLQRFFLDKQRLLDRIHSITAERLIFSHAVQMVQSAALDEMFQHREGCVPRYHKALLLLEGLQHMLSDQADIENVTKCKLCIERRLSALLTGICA
DAPK2 (human), sequence (Q9UIK4 whole entry, looked up): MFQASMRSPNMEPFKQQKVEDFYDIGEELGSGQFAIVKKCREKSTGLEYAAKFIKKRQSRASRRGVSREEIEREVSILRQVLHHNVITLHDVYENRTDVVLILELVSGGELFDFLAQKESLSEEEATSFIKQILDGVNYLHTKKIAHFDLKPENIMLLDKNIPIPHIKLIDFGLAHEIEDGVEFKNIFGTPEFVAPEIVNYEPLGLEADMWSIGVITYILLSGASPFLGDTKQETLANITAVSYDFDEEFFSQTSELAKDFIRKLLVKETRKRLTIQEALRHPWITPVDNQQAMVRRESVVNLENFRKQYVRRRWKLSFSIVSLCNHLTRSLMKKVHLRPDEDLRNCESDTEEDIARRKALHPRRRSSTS

Structure (SMILES) | kinase still bound, per cent of control (WEE2 (human)) | kinase still bound, per cent of control (DAPK2 (human)) | kinase still bound, per cent of control (STK32B (human)) | kinase still bound, per cent of control (TEC (human)) | kinase still bound, per cent of control [1] | kinase still bound, per cent of control (CDC42BPA (human)) | kinase still bound, per cent of control (AXL (human)) | kinase still bound, per cent of control (AAK1 (human)) | kinase still bound, per cent of control (IRAK3 (human)) | kinase still bound, per cent of control (MAP2K6 (human)) | kinase still bound, per cent of control (PTK6 (human)) | kinase still bound, per cent of control (MAP3K7 (human)) | kinase still bound, per cent of control (MAPK3 (human)) | kinase still bound, per cent of control (RIPK2 (human)) | kinase still bound, per cent of control (EPHA6 (human)) | kinase still bound, per cent of control (NTRK3 (human)) | kinase still bound, per cent of control (ADCK4 (human)) | kinase still bound, per cent of control (CDK8 (human)) | kinase still bound, per cent of control (TEK (human)) | kinase still bound, per cent of control (MARK2 (human)) | also measured
CC[C@@H]1C(=O)N(C)c2cnc(Nc3ccc(C(=O)NC4CCN(C)CC4)cc3OC)nc2N1C1CCCC1 | 100% | 16% | 100% | 100% | 100% | 100% | 100% | 100% | 100% | 100% | 100% | 100% | 100% | 100% | 100% | 100% | 100% | 100% | 100% | 100% | kinase still bound, per cent of control (ULK1 (human)): 100%; kinase still bound, per cent of control (MLTK (human)): 100%; kinase still bound, per cent of control [2]: 100%; kinase still bound, per cent of control (CDK18 (human)): 100%; kinase still bound, per cent of control (SGK110 (human)): 100%; kinase still bound, per cent of control (WEE1 (human)): 100%; kinase still bound, per cent of control (MKNK1 (human)): 100%; kinase still bound, per cent of control [3]: 100%; kinase still bound, per cent of control (PDPK1 (human)): 100%; kinase still bound, per cent of control (IKBKE (human)): 100%; kinase still bound, per cent of control (DCLK2 (human)): 13%; kinase still bound, per cent of control (BRSK2 (human)): 100%; kinase still bound, per cent of control (MAP3K4 (human)): 100%; kinase still bound, per cent of control (PAK4 (human)): 100%; kinase still bound, per cent of control (EPHA5 (human)): 100%; kinase still bound, per cent of control (ITK (human)): 100%; kinase still bound, per cent of control (CIT (human)): 100%; kinase still bound, per cent of control (ULK2 (human)): 100%
C[C@@H](Oc1cc(-n2cnc3ccc(CN4CCN(C)CC4)cc32)sc1C(N)=O)c1ccccc1C(F)(F)F | 83% | 15% | 100% | 91% | 100% | 95% | 41% | 40% | 38% | 98% | 93% | 48% | 100% | 92% | 92% | 100% | 58% | 95% | 78% | 53% | kinase still bound, per cent of control (ULK1 (human)): 41%; kinase still bound, per cent of control (CSNK1G1 (human)): 100%; kinase still bound, per cent of control (MLTK (human)): 100%; kinase still bound, per cent of control [2]: 1.2%; kinase still bound, per cent of control (CDK18 (human)): 100%; kinase still bound, per cent of control (SGK110 (human)): 100%; kinase still bound, per cent of control (WEE1 (human)): 100%; kinase still bound, per cent of control (MKNK1 (human)): 100%; kinase still bound, per cent of control (STK3 (human)): 74%; kinase still bound, per cent of control [3]: 31%; kinase still bound, per cent of control (PDPK1 (human)): 100%; kinase still bound, per cent of control (IKBKE (human)): 58%; kinase still bound, per cent of control (DCLK2 (human)): 100%; kinase still bound, per cent of control (BRSK2 (human)): 52%; kinase still bound, per cent of control (MAP3K4 (human)): 100%; kinase still bound, per cent of control (PAK4 (human)): 37%; kinase still bound, per cent of control (EPHA5 (human)): 100%; kinase still bound, per cent of control (ITK (human)): 89%; kinase still bound, per cent of control (CIT (human)): 87%
CCOc1cc2ncc(C#N)c(Nc3ccc(OCc4ccccn4)c(Cl)c3)c2cc1NC(=O)/C=C/CN(C)C | 98% | 87% | 73% | 73% | 83% | 91% | 5.4% | 68% | 85% | 100% | 100% | 90% | 100% | 98% | 99% | 78% | 98% | 100% | 56% | 86% | kinase still bound, per cent of control (ULK1 (human)): 100%; kinase still bound, per cent of control (MLTK (human)): 70%; kinase still bound, per cent of control [2]: 64%; kinase still bound, per cent of control (CDK18 (human)): 96%; kinase still bound, per cent of control (SGK110 (human)): 100%; kinase still bound, per cent of control (WEE1 (human)): 57%; kinase still bound, per cent of control (MKNK1 (human)): 29%; kinase still bound, per cent of control (STK3 (human)): 1.4%; kinase still bound, per cent of control [3]: 86%; kinase still bound, per cent of control (PDPK1 (human)): 88%; kinase still bound, per cent of control (IKBKE (human)): 100%; kinase still bound, per cent of control (DCLK2 (human)): 100%; kinase still bound, per cent of control (BRSK2 (human)): 100%; kinase still bound, per cent of control (MAP3K4 (human)): 4.8%; kinase still bound, per cent of control (PAK4 (human)): 93%; kinase still bound, per cent of control (EPHA5 (human)): 100%; kinase still bound, per cent of control (ITK (human)): 52%; kinase still bound, per cent of control (CIT (human)): 95%; kinase still bound, per cent of control (ULK2 (human)): 100%
Cc1ccc2nc(NCCN)c3ncc(C)n3c2c1 | 100% | 65% | 100% | 100% | 100% | 85% | 100% | 78% | 72% | 88% | 99% | 100% | 97% | 100% | 100% | 100% | 24% | 100% | 100% | 100% | kinase still bound, per cent of control (CSNK1G1 (human)): 94%; kinase still bound, per cent of control (MLTK (human)): 96%; kinase still bound, per cent of control [2]: 41%; kinase still bound, per cent of control (CDK18 (human)): 100%; kinase still bound, per cent of control (SGK110 (human)): 100%; kinase still bound, per cent of control (WEE1 (human)): 100%; kinase still bound, per cent of control (MKNK1 (human)): 100%; kinase still bound, per cent of control (STK3 (human)): 90%; kinase still bound, per cent of control (PDPK1 (human)): 100%; kinase still bound, per cent of control (IKBKE (human)): 100%; kinase still bound, per cent of control (DCLK2 (human)): 100%; kinase still bound, per cent of control (BRSK2 (human)): 100%; kinase still bound, per cent of control (MAP3K4 (human)): 100%; kinase still bound, per cent of control (PAK4 (human)): 100%; kinase still bound, per cent of control (EPHA5 (human)): 100%; kinase still bound, per cent of control (ITK (human)): 100%; kinase still bound, per cent of control (CIT (human)): 100%; kinase still bound, per cent of control (ULK2 (human)): 100%
